Columns and labels:
[1] = system: TGF-β-stimulated SMAD3 phosphorylation in BEAS-2B cells; experiment: Cellular ALK5 potency assay, inhibition of TGF-β stimulated pSMAD3 formation in BEAS-2B cells; type: cell-based; conditions: Homo sapiens; inhibition of TGF-β stimulated pSMAD3 formation, BEAS-2B cells; read-out: BEAS2B pIC50 (converted)
How it was run: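 BEAS-2B human lung epithelial cells, seeded overnight, were pre-treated with compound in HBSS/25 mM HEPES/1% BSA for 1 h at 37 °C, then stimulated with TGF-β (final 10 ng/mL) for 30 min. Lysates were assayed for pSMAD3 by AlphaLISA; pIC50 came from dose-dependent signal change versus TGF-β-stimulated untreated cells.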

[2] = biological target: T1, recombinant human ALK5 (TGF-βR1) protein (Homo sapiens, UniProt P36897); experiment: Biochemical ALK5 (TGF-βR1) assay to measure pKi (LANCE Ultra ULight kinase assay); conditions: apparent pKi from pIC50 by Cheng-Prusoff, read-out: ALK5 pKi (converted)
T1 construct: purchased Life Technologies PR9075A
T1 sequence (P36897 34-503): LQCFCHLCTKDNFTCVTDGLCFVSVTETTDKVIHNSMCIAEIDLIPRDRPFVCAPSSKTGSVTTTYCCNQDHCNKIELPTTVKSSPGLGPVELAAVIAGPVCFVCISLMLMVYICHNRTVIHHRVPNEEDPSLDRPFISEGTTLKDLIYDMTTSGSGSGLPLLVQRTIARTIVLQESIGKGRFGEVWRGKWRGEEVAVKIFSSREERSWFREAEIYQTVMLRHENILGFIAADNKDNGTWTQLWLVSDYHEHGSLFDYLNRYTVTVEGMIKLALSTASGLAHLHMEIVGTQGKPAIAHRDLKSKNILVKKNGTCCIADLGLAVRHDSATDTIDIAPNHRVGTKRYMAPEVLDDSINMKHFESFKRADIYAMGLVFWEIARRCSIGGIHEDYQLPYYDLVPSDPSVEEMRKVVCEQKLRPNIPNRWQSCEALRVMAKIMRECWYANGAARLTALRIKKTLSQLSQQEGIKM
How it was run: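 Dose range 10 μM–25 pM; enzyme + compound 60 min RT; ATP added (5× stock 125 μM, 2 mM DTT); 60 min 37 °C; stop with EDTA + Eu anti-phospho-Topo IIα Thr1342 Ab; TR-FRET ex 320/340, em 665 nm. 4-param pIC50 → pKi (Cheng-Prusoff).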

Row | SMILES | Ki [2] [nM] | IC50 [1] [nM]
1 | Cc1cccc(-c2nc3ccccn3c2-c2ccc3ncc(-c4cnn5c4CNCC5)cc3n2)n1 [Compound 587, 2-(2-(6-methylpyridin-2-yl)imidazo[1,2-a]pyridin-3-yl)-7-(4,5,6,7-tetrahydropyrazolo[1,5-a]pyrazin-3-yl)-1,5-naphthyridine] | 0.0398 to 0.316 | 25.1 to 158
2 | CNCCn1cc(-c2cnc3ccc(-c4c[nH]nc4-c4cccc(C)n4)cc3c2)cn1 [Compound 589, N-methyl-2-[4-[6-[3-(6-methyl-2-pyridyl)-1H-pyrazol-4-yl]-3-quinolyl]pyrazol-1-yl]ethanamine] | < 0.0316 | < 20
3 | Cc1cccc(-c2[nH]cnc2-c2ccc3ncc(C4=CCC(NCC5CCC(=O)O5)CC4)cc3c2)n1 (centres unmarked) [Compound 590, 5-[[[4-[6-[5-(6-methyl-2-pyridyl)-1H-imidazol-4-yl]-3-quinolyl]cyclohex-3-en-1-yl]amino]methyl]tetrahydrofuran-2-one] | 0.0398 to 0.316 | 25.1 to 158
4 | Cc1cccc(-c2nc3ccccn3c2-c2ccc3ncc(-c4cn[nH]c4)cc3c2)n1 [Compound 592, 6-[2-(6-methyl-2-pyridyl)imidazo[1,2-a]pyridin-3-yl]-3-(1H-pyrazol-4-yl)quinoline] | < 0.0316 | < 20
5 | Cc1cccc(-c2[nH]cnc2-c2ccc3ncc(NCCN(C)C4CNC4)cc3c2)n1 [Compound 593, N′-(azetidin-3-yl)-N′-methyl-N-[6-[5-(6-methyl-2-pyridyl)-1H-imidazol-4-yl]-3-quinolyl]ethane-1,2-diamine] | 0.0398 to 0.316 | 200 to 1260
6 | Cc1cccc(-c2[nH]cnc2-c2ccc3ncc(N)cc3c2)n1 [Compound 594, 6-[5-(6-methyl-2-pyridyl)-1H-imidazol-4-yl]quinolin-3-amine] | 0.0398 to 0.316 | < 20
7 | Cc1cccc(-c2n[nH]cc2-c2ccc3ncc(NCCN4CCCC4)cc3n2)n1 [Compound 597, 6-[3-(6-methyl-2-pyridyl)-1H-pyrazol-4-yl]-N-(2-pyrrolidin-1-ylethyl)-1,5-naphthyridin-3-amine] | < 0.0316 | 25.1 to 158
8 | Cc1nc(-c2n[nH]cc2-c2ccc3ncc(-c4cnn(C(=O)OC(C)C)c4)cc3n2)ccc1F [Compound 599, isopropyl 4-[6-[3-(5-fluoro-6-methyl-2-pyridyl)-1H-pyrazol-4-yl]-1,5-naphthyridin-3-yl]pyrazole-1-carboxylate] | < 0.0316 | < 20
9 | COc1[nH]nc(-c2cccc(C)n2)c1-c1ccc2ncc(N)cc2n1 [Compound 600, 6-(5-methoxy-3-(6-methylpyridin-2-yl)-1H-pyrazol-4-yl)-1,5-naphthyridin-3-amine] | 0.0398 to 0.316 | 25.1 to 158
10 | Cc1cccc(-c2[nH]nnc2-c2ccc3ncc(-c4cnn(C5CCCNC5)c4)cc3n2)n1 (centres unmarked) [Compound 602, 2-[5-(6-methyl-2-pyridyl)-1H-triazol-4-yl]-7-[1-(3-piperidyl)pyrazol-4-yl]-1,5-naphthyridine] | < 0.0316 | 200 to 1260
11 | Cc1nc(-c2[nH]cnc2-c2ccc3ncc(NCCN4CCCC4(C)C)cc3n2)ccc1F [Compound 603, N-[2-(2,2-dimethylpyrrolidin-1-yl)ethyl]-6-[5-(5-fluoro-6-methyl-2-pyridyl)-1H-imidazol-4-yl]-1,5-naphthyridin-3-amine] | < 0.0316 | 25.1 to 158
12 | CNCCn1cc(-c2cnc3ccc(-c4c(-c5cccc(C)n5)nn5cc(Cl)ccc45)cc3c2)cn1 [Compound 605, 2-[4-[6-[6-chloro-2-(6-methyl-2-pyridyl)pyrazolo[1,5-a]pyridin-3-yl]-3-quinolyl]pyrazol-1-yl]-N-methyl-ethanamine] | 0.0398 to 0.316 | 200 to 1260
13 | Cc1cccc(-c2[nH]cnc2-c2ccc3ncc(-c4cccc(C(=O)O[C@@H]5CCN(C)C5)c4)cc3c2)n1 [Compound 608, [(3R)-1-methylpyrrolidin-3-yl] 3-[6-[5-(6-methyl-2-pyridyl)-1H-imidazol-4-yl]-3-quinolyl]benzoate] | 0.0398 to 0.316 | 25.1 to 158
14 | Cc1cccc(-c2[nH]cnc2-c2ccc3ncc(-c4ccc5c(c4)CNCC5)cc3c2)n1 [Compound 609, 6-[5-(6-methyl-2-pyridyl)-1H-imidazol-4-yl]-3-(1,2,3,4-tetrahydroisoquinolin-7-yl)quinoline] | 0.0398 to 0.316 | < 20

Now from value to compound, other results behind:

Row | Ki [2] [nM] | SMILES | IC50 [1] [nM]
15 | < 0.0316 | Cc1cccc(-c2n[nH]cc2-c2ccc3ncc(-c4cccnc4O)cc3n2)n1 [Compound 585, 3-[6-[3-(6-methyl-2-pyridyl)-1H-pyrazol-4-yl]-1,5-naphthyridin-3-yl]pyridin-2-ol] | 25.1 to 158
16 | < 0.0316 | Cc1cccc(-c2n[nH]cc2-c2ccc3ncc(N4CC(C)(N(C)C)C4)cc3n2)n1 [Compound 586, N,N,3-trimethyl-1-[6-[3-(6-methyl-2-pyridyl)-1H-pyrazol-4-yl]-1,5-naphthyridin-3-yl]azetidin-3-amine] | 25.1 to 158
17 | 0.0398 to 0.316 | Cc1cccc(-c2n[nH]cc2-c2ccc3ncc(C4=CCNC4)cc3n2)n1 [Compound 588, 7-(2,5-dihydro-1H-pyrrol-3-yl)-2-[3-(6-methyl-2-pyridyl)-1H-pyrazol-4-yl]-1,5-naphthyridine] | < 20
18 | < 0.0316 | Cc1cccc(-c2n[nH]cc2-c2ccc3ncc(-c4ccc[nH]4)cc3n2)n1 [Compound 591, 2-[3-(6-methyl-2-pyridyl)-1H-pyrazol-4-yl]-7-(1H-pyrrol-2-yl)-1,5-naphthyridine] | < 20
19 | < 0.0316 | Cc1cccc(-c2n[nH]cc2-c2ccc3ncc(-c4cccnc4)cc3n2)n1 [Compound 595, 2-[3-(6-methyl-2-pyridyl)-1H-pyrazol-4-yl]-7-(3-pyridyl)-1,5-naphthyridine] | < 20
20 | < 0.0316 | Cc1cccc(-c2n[nH]cc2-c2ccc3ncc(-c4cc(C)nn4C)cc3n2)n1 [Compound 596, 7-(2,5-dimethylpyrazol-3-yl)-2-[3-(6-methyl-2-pyridyl)-1H-pyrazol-4-yl]-1,5-naphthyridine] | < 20
21 | 3.98 to 31.6 | CCOC(=O)CCN(C)c1cnc2ccc(-c3c[nH]nc3-c3cccc(C)n3)nc2c1 [Compound 601, ethyl 3-[methyl-[6-[3-(6-methyl-2-pyridyl)-1H-pyrazol-4-yl]-1,5-naphthyridin-3-yl]amino]propanoate] | 200 to 1260
22 | 0.398 to 3.16 | Cc1cccc(-c2n[nH]cc2-c2ccc3ncc(-c4cn[nH]c4-c4cccc(C)n4)cc3n2)n1 [Compound 604, 2-[3-(6-methyl-2-pyridyl)-1H-pyrazol-4-yl]-7-[5-(6-methyl-2-pyridyl)-1H-pyrazol-4-yl]-1,5-naphthyridine] | 25.1 to 158
23 | 0.0398 to 0.316 | CNC1CCCN(c2cnc3ccc(-c4c[nH]nc4-c4cccc(C)n4)nc3c2)C1 (centres unmarked) [Compound 606, N-methyl-1-[6-[3-(6-methyl-2-pyridyl)-1H-pyrazol-4-yl]-1,5-naphthyridin-3-yl]piperidin-3-amine] | 25.1 to 158
24 | 0.0398 to 0.316 | Cc1cccc(-c2n[nH]cc2-c2ccc3ncc(C(N)=O)cc3n2)n1 [Compound 607, 6-[3-(6-methyl-2-pyridyl)-1H-pyrazol-4-yl]-1,5-naphthyridine-3-carboxamide] | 25.1 to 158
25 | 0.0398 to 0.316 | Cc1cccc(-c2n[nH]cc2-c2ccc3ncc(NC(=O)C(F)(F)F)cc3n2)n1 [Compound 610, 2,2,2-trifluoro-N-[6-[3-(6-methyl-2-pyridyl)-1H-pyrazol-4-yl]-1,5-naphthyridin-3-yl]acetamide] | 25.1 to 158
